From BindingDB's records for doi:10.1016/s0960-894x(02)01027-2 (Glaxosmithkline, 2003)
pIC50: −log10 of the molar value.

Each molecule was assayed against Methionine--tRNA ligase (Staphylococcus aureus) (assay: Compound tested for inhibition of Staphylococcus aureus MRS(methionyl tRNA synthetase) in aminoacylation assay).

Compound	pIC50
Oc1cc(NCCCNCc2cc(Br)cc(Br)c2)nc2ccccc12	> 8.52
Oc1cc(NCCCNCc2cc(Cl)cc(Cl)c2Cl)nc2ccccc12	> 8.52
CCOc1c(I)cc(I)cc1CNCCCNc1cc(O)c2ccccc2n1	> 8.52

Target: Methionine--tRNA ligase (Staphylococcus aureus)
Experiment: as above
Remark: another data set of the same source

Compound	pIC50
CCOc1c(Cl)cc(Cl)cc1CNCCCNc1cc(O)c2ccccc2n1 [2-[3-(3,5-Dichloro-2-ethoxy-benzylamino)-propylamino]-1H-quinolin-4-one]	7.85
Oc1cc(NCCCNCc2cccc(Cl)c2Cl)nc2ccccc12 [2-[3-(2,3-Dichloro-benzylamino)-propylamino]-1H-quinolin-4-one]	7.82
CCOc1c(Cl)cc(OC)cc1CNCCCNc1cc(O)c2ccccc2n1 [2-[3-(3-Chloro-2-ethoxy-5-methoxy-benzylamino)-propylamino]-1H-quinolin-4-one]	8.37
Oc1cc(NCCCNCc2ccccc2)nc2ccccc12 [2-(3-Benzylamino-propylamino)-1H-quinolin-4-one]	6.52
CCOc1c(Br)cc(Br)cc1CNCCCNc1cc(O)c2ccccc2n1 [2-[3-(3,5-Dibromo-2-ethoxy-benzylamino)-propylamino]-1H-quinolin-4-one]	8.36
